Consider twelve molecules from patent publication US20240109918A1, “HETEROCYCLIC COMPOUNDS AND USES THEREOF” (Kumquat Biosciences Inc., priority 2022, published 2024).

Molecules are shown by their SMILES.

One assay addresses T1, KRASG12D (Homo sapiens, UniProt P01116, G12D).
T1 construct: made in house; host or cells: E. coli BL21 (DE3)
Description: Bio-Biochem-PPI-HTRF Ras-SOS1 interaction assay (KRAS G12D). The format is biochemical. As to conditions: 5 nM. A digest of the protocol: (§1)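 HTRF measurement of GST-K-Ras (wt or G12D) binding to His-hSOS1, via anti-GST-Eu(K) donor and anti-6His-XL665 acceptor, in HEPES pH 7.4 buffer with NaCl, DTT, BSA and Igepal. Read after ≥10 min; compounds in duplicate from 10 μM down to 0.01 μM. IC50 from 665/620 nm ratio.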
In general terms: TR-FRET usually uses a lanthanide donor and a delayed reading to cut background.

The target of another assay is T2, KRASwt (Homo sapiens, UniProt P01116).
T2 construct: made in house; host or cells: E. coli BL21 (DE3)
T2 sequence (P01116 1-188 isoform P01116-2): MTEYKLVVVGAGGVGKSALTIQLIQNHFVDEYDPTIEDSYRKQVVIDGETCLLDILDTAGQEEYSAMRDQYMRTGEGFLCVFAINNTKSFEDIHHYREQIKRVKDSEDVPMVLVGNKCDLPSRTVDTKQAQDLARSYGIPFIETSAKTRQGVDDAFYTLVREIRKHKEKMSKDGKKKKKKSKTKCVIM
Description: Bio-Biochem-PPI-HTRF Ras-SOS1 interaction assay (KRAS wt). As to conditions: 5 nM. Format: biochemical. Put shortly: as §1

T1 sequence (P01116 1-188 isoform P01116-2 G12D): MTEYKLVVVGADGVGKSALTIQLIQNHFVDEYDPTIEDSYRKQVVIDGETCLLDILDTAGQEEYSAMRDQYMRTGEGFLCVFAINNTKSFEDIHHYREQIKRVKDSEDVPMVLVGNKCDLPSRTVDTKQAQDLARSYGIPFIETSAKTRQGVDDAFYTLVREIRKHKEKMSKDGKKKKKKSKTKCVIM

The IC50 is the concentration that gives 50% inhibition. A low value points to higher potency. With `N#Cc1c(N)sc2c(F)ccc(-c3c(Cl)cc4c(N5CCCC6(CN(C(=O)N7CC(C#N)C7)C6)C5)nc(OC[C@@]56CCCN5C[C@H](F)C6)nc4c3F)c12` [compound 308, 1-(6-(7-(2-amino-3-cyano-7-fluorobenzo[b]thiophen-4-yl)-6-chloro-8-fluoro-2-(((2R,7aS)-2-fluorotetrahydro-1H-pyrrolizin-7a(5H)-yl)methoxy)quinazolin-4-yl)-2,6-diazaspiro[3.5]nonane-2-carbonyl)azetidine-3-carbonitrile], the half-inhibitory concentration (IC50) against KRASG12D and against KRASwt was < 5 µM each time.

With `N#Cc1c(N)sc2c(F)ccc(-c3c(Cl)cc4c(N5CCCCC6(CN(C(=O)C7CC8(C7)CC8(F)F)C6)C5)nc(OC[C@@]56CCCN5C[C@H](F)C6)nc4c3F)c12` (stereo partly drawn) [compound 309, 2-amino-4-(6-chloro-4-(2-(1,1-difluorospiro[2.3]hexane-5-carbonyl)-2,6-diazaspiro[3.6]decan-6-yl)-8-fluoro-2-(((2R,7aS)-2-fluorotetrahydro-1H-pyrrolizin-7a(5H)-yl)methoxy)quinazolin-7-yl)-7-fluorobenzo[b]thiophene-3-carbonitrile], the IC50 on KRASG12D and at KRASwt was < 5 µM in each case.

On to `N#Cc1c(N)sc2c(F)ccc(-c3c(Cl)cc4c(N5CCCCC6(CN(C(=O)C7CC7C(F)(F)F)C6)C5)nc(OC[C@@]56CCCN5C[C@H](F)C6)nc4c3F)c12` (stereo partly drawn) [compound 311, 2-amino-4-(6-chloro-8-fluoro-2-(((2R,7aS)-2-fluorotetrahydro-1H-pyrrolizin-7a(5H)-yl)methoxy)-4-(2-(2-(trifluoromethyl)cyclopropane-1-carbonyl)-2,6-diazaspiro[3.6]decan-6-yl)quinazolin-7-yl)-7-fluorobenzo[b]thiophene-3-carbonitrile], for which the half-inhibitory concentration (IC50) against KRASG12D and on KRASwt was < 5 µM each time.

As to `CN(C)CCC(=O)N1CC2(C1)CN(c1nc(OC[C@@]34CCCN3C[C@H](F)C4)nc3c(F)c(-c4ccc(F)c5sc(N)c(C#N)c45)c(Cl)cc13)CCO2` [compound 312, 2-amino-4-(6-chloro-4-(2-(3-(dimethylamino)propanoyl)-5-oxa-2,8-diazaspiro[3.5]nonan-8-yl)-8-fluoro-2-(((2R,7aS)-2-fluorotetrahydro-1H-pyrrolizin-7a(5H)-yl)methoxy)quinazolin-7-yl)-7-fluorobenzo[b]thiophene-3-carbonitrile], the 50% inhibitory concentration (IC50) at KRASG12D and on KRASwt was < 5 µM throughout.

Regarding `N#Cc1c(N)sc2c(F)ccc(-c3c(Cl)cc4c(N5CCC(OC(F)F)CC6(CN(C(=O)[C@@H]7CC7(F)F)C6)C5)nc(OC[C@@]56CCCN5C[C@H](F)C6)nc4c3F)c12` (stereo partly drawn) [compound 313, 2-amino-4-(6-chloro-4-(2-((S)-2,2-difluorocyclopropane-1-carbonyl)-9-(difluoromethoxy)-2,6-diazaspiro[3.6]decan-6-yl)-8-fluoro-2-(((2R,7aS)-2-fluorotetrahydro-1H-pyrrolizin-7a(5H)-yl)methoxy)quinazolin-7-yl)-7-fluorobenzo[b]thiophene-3-carbonitrile], the concentration for half-maximal inhibition (IC50) against KRASG12D and at KRASwt was < 5 µM in each case.

Regarding `N#Cc1c(N)sc2c(F)ccc(-c3c(Cl)cc4c(N5CCCCC6(CN(C(=O)C7CCCN7)C6)C5)nc(OC[C@@]56CCCN5C[C@H](F)C6)nc4c3F)c12` (stereo partly drawn) [compound 314, 2-amino-4-(6-chloro-8-fluoro-2-(((2R,7aS)-2-fluorotetrahydro-1H-pyrrolizin-7a(5H)-yl)methoxy)-4-(2-prolyl-2,6-diazaspiro[3.6]decan-6-yl)quinazolin-7-yl)-7-fluorobenzo[b]thiophene-3-carbonitrile], the IC50 against KRASG12D and at KRASwt was < 5 µM each time.

Turning to `C#Cc1c(F)ccc2cc(O)cc(-c3ncc4c(N5CCOCC6(CN(C(=O)[C@H]7CC7(F)F)C6)C5)nc(OC[C@@]56CCCN5C[C@H](F)C6)nc4c3F)c12` [compound 316, ((R)-2,2-difluorocyclopropyl) (9-(7-(8-ethynyl-7-fluoro-3-hydroxynaphthalen-1-yl)-8-fluoro-2-(((2R,7aS)-2-fluorotetrahydro-1H-pyrrolizin-7a(5H)-yl)methoxy)pyrido[4,3-d]pyrimidin-4-yl)-6-oxa-2,9-diazaspiro[3.6]decan-2-yl)methanone], the IC50 at KRASG12D and against KRASwt was < 5 µM in each case.

With `N#Cc1c(N)sc2c(F)ccc(-c3c(Cl)cc4c(N5CCCCC6(CN(C(=O)C(F)F)C6)C5)nc(OC[C@@]56CCCN5C[C@H](F)C6)nc4c3F)c12` [compound 317, 2-amino-4-(6-chloro-4-(2-(2,2-difluoroacetyl)-2,6-diazaspiro[3.6]decan-6-yl)-8-fluoro-2-(((2R,7aS)-2-fluorotetrahydro-1H-pyrrolizin-7a(5H)-yl)methoxy)quinazolin-7-yl)-7-fluorobenzo[b]thiophene-3-carbonitrile], the IC50 at KRASG12D and at KRASwt was < 5 µM throughout.

As to `C[C@H](O)C(=O)N1CC2(CCCCN(c3nc(OC[C@@]45CCCN4C[C@H](F)C5)nc4c(F)c(-c5ccc(F)c6sc(N)c(C#N)c56)c(Cl)cc34)C2)C1` [compound 318, 2-amino-4-(6-chloro-8-fluoro-2-(((2R,7aS)-2-fluorotetrahydro-1H-pyrrolizin-7a(5H)-yl)methoxy)-4-(2-((S)-2-hydroxypropanoyl)-2,6-diazaspiro[3.6]decan-6-yl)quinazolin-7-yl)-7-fluorobenzo[b]thiophene-3-carbonitrile], the half-inhibitory concentration (IC50) against KRASG12D and against KRASwt was < 5 µM each time.

`N#Cc1c(N)sc2c(F)ccc(-c3c(Cl)cc4c(N5CCCCC6(CN(C(=O)[C@H]7CCOC7)C6)C5)nc(OC[C@@]56CCCN5C[C@H](F)C6)nc4c3F)c12` [compound 319, 2-amino-4-(6-chloro-8-fluoro-2-(((2R,7aS)-2-fluorotetrahydro-1H-pyrrolizin-7a(5H)-yl)methoxy)-4-(2-((S)-tetrahydrofuran-3-carbonyl)-2,6-diazaspiro[3.6]decan-6-yl)quinazolin-7-yl)-7-fluorobenzo[b]thiophene-3-carbonitrile]: the IC50 against KRASG12D and against KRASwt was < 5 µM each time.

As to `N#Cc1c(N)sc2c(F)ccc(-c3c(Cl)cc4c(N5CCCCC6(CN(C(=O)CC7CCC7)C6)C5)nc(OC[C@@]56CCCN5C[C@H](F)C6)nc4c3F)c12` [compound 320, 2-amino-4-(6-chloro-4-(2-(2-cyclobutylacetyl)-2,6-diazaspiro[3.6]decan-6-yl)-8-fluoro-2-(((2R,7aS)-2-fluorotetrahydro-1H-pyrrolizin-7a(5H)-yl)methoxy)quinazolin-7-yl)-7-fluorobenzo[b] thiophene-3-carbonitrile], the concentration for half-maximal inhibition (IC50) against KRASG12D and on KRASwt was < 5 µM each time.

For `C[C@@H]1CN(C(=O)N2CC3(CCCCN(c4nc(OC[C@@]56CCCN5C[C@H](F)C6)nc5c(F)c(-c6ccc(F)c7sc(N)c(C#N)c67)c(Cl)cc45)C3)C2)CCO1` [compound 322, 2-amino-4-(6-chloro-8-fluoro-2-(((2R,7aS)-2-fluorotetrahydro-1H-pyrrolizin-7a(5H)-yl)methoxy)-4-(2-((R)-2-methylmorpholine-4-carbonyl)-2,6-diazaspiro[3.6]decan-6-yl)quinazolin-7-yl)-7-fluorobenzo[b]thiophene-3-carbonitrile], the half-maximal inhibitory concentration (IC50) against KRASG12D and against KRASwt was < 5 µM each time.
